Calls of active or inactive are those of the source. The rule behind the calls is not given here.
How the values were obtained:
Dipeptidyl peptidase 4 = Dipeptidyl peptidase 4 (Homo sapiens, UniProt P27487); test: Inhibition of DPP4 in human plasma using Gly-Pro-AMC substrate incubated for 20 mins by fluorometry
[1] = target: T1, Nuclear factor NF-kappa-B complex (Homo sapiens) (UniProt Q00653+P19838+Q04206); test: Inhibition of NFkappaB (unknown origin) expressed in LPS-stimulated HEK293-NF-kappaB-luc cells assessed as luminescence signals measured by relative light units at 1 ug/mL pre-treated for 4 hrs before LPS challenge for 24 hrs by luciferase assay; type: cell-based
T1 sequence (P19838 whole entry, looked up): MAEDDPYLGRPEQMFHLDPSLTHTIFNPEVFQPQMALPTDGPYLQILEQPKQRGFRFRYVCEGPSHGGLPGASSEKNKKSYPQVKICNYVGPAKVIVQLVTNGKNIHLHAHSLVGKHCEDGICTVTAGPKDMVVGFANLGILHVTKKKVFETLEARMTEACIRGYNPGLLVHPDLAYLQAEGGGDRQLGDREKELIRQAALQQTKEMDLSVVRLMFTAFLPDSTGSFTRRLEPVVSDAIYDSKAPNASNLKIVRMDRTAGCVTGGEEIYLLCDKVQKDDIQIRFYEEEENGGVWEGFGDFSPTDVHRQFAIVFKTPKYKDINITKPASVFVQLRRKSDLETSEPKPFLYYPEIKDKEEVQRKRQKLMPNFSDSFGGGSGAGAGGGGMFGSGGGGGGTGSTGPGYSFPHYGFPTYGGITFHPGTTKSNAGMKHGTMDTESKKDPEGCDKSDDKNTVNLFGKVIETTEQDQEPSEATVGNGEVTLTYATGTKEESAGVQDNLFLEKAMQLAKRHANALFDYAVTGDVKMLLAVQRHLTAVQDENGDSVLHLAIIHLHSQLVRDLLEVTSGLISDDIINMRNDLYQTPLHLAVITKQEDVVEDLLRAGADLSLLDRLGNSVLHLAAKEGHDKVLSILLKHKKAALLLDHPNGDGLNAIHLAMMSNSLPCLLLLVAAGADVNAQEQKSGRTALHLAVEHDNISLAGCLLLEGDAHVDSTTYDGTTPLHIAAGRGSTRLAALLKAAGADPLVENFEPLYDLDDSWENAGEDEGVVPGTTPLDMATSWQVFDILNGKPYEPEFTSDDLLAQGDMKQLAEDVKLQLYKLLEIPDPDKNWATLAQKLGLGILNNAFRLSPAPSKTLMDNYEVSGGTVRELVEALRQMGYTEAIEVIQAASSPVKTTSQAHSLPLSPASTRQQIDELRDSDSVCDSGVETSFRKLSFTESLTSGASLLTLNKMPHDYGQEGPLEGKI
T1 sequence (Q00653 whole entry, looked up): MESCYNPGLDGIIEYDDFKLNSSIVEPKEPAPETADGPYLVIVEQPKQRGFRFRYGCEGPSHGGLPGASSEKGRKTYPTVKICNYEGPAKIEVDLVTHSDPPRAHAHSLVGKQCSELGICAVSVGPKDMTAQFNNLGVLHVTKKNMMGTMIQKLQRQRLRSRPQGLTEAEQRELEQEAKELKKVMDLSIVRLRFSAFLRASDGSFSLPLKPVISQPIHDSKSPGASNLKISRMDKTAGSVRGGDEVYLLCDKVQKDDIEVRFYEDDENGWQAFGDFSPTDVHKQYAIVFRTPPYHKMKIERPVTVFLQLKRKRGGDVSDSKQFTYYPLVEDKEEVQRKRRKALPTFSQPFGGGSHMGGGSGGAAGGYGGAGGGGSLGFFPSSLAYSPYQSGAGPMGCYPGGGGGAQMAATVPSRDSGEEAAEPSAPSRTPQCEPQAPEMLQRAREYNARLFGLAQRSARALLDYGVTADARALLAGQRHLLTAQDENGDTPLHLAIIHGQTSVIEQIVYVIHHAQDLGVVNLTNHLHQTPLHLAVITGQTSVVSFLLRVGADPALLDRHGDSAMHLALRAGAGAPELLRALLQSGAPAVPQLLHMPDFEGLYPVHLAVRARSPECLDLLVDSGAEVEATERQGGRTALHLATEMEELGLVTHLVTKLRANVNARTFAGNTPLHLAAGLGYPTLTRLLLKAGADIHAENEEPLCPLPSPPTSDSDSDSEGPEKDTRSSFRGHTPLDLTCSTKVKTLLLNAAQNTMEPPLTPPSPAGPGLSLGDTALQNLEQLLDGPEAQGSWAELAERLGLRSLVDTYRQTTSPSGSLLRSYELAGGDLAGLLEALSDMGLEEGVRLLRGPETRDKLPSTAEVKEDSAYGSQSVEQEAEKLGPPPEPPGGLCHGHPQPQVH
T1 sequence (Q04206 whole entry, looked up): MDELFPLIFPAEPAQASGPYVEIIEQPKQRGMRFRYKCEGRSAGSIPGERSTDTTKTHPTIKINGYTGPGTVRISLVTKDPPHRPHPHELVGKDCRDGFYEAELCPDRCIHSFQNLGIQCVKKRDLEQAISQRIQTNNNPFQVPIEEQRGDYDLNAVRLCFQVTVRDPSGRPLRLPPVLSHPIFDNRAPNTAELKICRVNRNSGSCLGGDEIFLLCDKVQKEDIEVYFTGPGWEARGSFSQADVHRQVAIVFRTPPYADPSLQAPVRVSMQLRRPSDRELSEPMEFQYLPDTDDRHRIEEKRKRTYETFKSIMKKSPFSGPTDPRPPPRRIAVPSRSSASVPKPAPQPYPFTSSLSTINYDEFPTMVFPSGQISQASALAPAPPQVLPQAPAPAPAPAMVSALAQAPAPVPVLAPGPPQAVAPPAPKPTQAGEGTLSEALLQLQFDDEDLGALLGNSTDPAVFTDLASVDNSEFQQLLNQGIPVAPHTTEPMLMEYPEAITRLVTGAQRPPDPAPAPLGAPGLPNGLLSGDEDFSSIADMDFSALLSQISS

[2] = target: T1, Nuclear factor NF-kappa-B complex (Homo sapiens); test: Inhibition of NFkappaB (unknown origin) expressed in LPS-stimulated HEK293-NF-kappaB-luc cells assessed as luminescence signals measured by relative light units at 500 ug/mL pre-treated for 4 hrs before LPS challenge for 24 hrs by luciferase assay; type: cell-based
[3] = target: T1, Nuclear factor NF-kappa-B complex (Homo sapiens); test: Inhibition of NFkappaB (unknown origin) expressed in LPS-stimulated HEK293-NF-kappaB-luc cells assessed as luminescence signals measured by relative light units at 10 ug/mL pre-treated for 4 hrs before LPS challenge for 24 hrs by luciferase assay; type: cell-based
[4] = target: T1, Nuclear factor NF-kappa-B complex (Homo sapiens); test: Inhibition of NFkappaB (unknown origin) expressed in LPS-stimulated HEK293-NF-kappaB-luc cells assessed as luminescence signals measured by relative light units at 100 ug/mL pre-treated for 4 hrs before LPS challenge for 24 hrs by luciferase assay; type: cell-based

Dipeptidyl peptidase 4, sequence (P27487 whole entry): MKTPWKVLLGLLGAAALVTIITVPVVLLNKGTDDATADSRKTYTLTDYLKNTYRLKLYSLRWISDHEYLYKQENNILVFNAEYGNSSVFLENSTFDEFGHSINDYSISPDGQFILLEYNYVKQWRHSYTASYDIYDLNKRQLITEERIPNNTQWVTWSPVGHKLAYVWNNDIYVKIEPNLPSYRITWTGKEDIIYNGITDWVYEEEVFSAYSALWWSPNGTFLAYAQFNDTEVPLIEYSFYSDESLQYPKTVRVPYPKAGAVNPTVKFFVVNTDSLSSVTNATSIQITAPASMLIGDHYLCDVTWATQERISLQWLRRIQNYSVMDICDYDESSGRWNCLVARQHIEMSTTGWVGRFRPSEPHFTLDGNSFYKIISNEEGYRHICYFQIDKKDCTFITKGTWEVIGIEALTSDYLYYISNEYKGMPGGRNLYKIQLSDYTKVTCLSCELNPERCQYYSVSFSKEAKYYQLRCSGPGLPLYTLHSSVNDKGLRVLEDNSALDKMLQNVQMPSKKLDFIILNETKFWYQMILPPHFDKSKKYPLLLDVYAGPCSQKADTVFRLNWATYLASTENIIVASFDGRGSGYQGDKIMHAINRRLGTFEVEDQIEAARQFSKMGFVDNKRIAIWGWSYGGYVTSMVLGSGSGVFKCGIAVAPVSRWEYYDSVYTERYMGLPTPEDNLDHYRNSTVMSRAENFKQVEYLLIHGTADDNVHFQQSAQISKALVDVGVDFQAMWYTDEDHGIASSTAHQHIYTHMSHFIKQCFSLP

Structure (SMILES) | IC50 (Dipeptidyl peptidase 4) [µM] | Activity [1] | Activity [2] | Activity [3] | Activity [4] | RLU [1] | RLU [2] | RLU [3] | RLU [4]
CC#CC#CC#C/C=C/C=C/C(CCO)O[C@@H]1O[C@H](CO)[C@@H](O)[C@H](O)[C@H]1O (some centres not stated) | > 100 | – | – | – | – | – | – | – | –
CC1(C)CC[C@]2(C(=O)O[C@@H]3O[C@H](CO)[C@@H](O)[C@H](O)[C@H]3O)CC[C@]3(C)C(=CC[C@@H]4[C@@]5(C)CC[C@H](O[C@@H]6O[C@H](CO)[C@@H](O)[C@H](O)[C@H]6O)C(C)(C)[C@@H]5CC[C@]43C)[C@@H]2C1 | – | inactive | inactive | inactive | inactive | – | – | – | –
CC1(C)CC[C@]2(C(=O)O[C@@H]3O[C@H](CO)[C@@H](O)[C@H](O)[C@H]3O)[C@H](O)C[C@]3(C)C(=CC[C@@H]4[C@@]5(C)CC[C@H](O[C@@H]6O[C@H](CO)[C@@H](O)[C@H](O)[C@H]6O[C@@H]6O[C@H](CO)[C@@H](O)[C@H](O)[C@H]6O)C(C)(C)[C@@H]5CC[C@]43C)[C@@H]2C1 | – | inactive | inactive | inactive | inactive | – | – | – | –
CC1(C)CC[C@]2(C(=O)O[C@@H]3O[C@H](CO)[C@@H](O)[C@H](O)[C@H]3O)[C@@H](O)C[C@]3(C)C(=CC[C@@H]4[C@@]5(C)CC[C@H](O[C@@H]6O[C@H](CO)[C@@H](O)[C@H](O)[C@H]6O)C(C)(C)[C@@H]5CC[C@]43C)[C@@H]2C1 | – | inactive | inactive | inactive | inactive | – | – | – | –
CC1(C)CC[C@]2(C(=O)O[C@@H]3O[C@H](CO)[C@@H](O)[C@H](O)[C@H]3O)CC[C@]3(C)C(=CC[C@@H]4[C@@]5(C)CC[C@H](O[C@@H]6O[C@H](CO)[C@@H](O)[C@H](O)[C@H]6O[C@@H]6O[C@H](CO)[C@@H](O)[C@H](O)[C@H]6O)C(C)(C)[C@@H]5CC[C@]43C)[C@@H]2C1 | – | – | – | – | – | 0.09 | 0.59 | 0.23 | 0.47
C[C@]12CCC(=O)C=C1CC[C@@H]1[C@@H]2[C@@H](O)C[C@@]2(C)[C@H]1CC[C@]2(O)C(=O)CO | – | – | – | – | – | 0.15 | 0.64 | 0.32 | 0.45
CC1(C)[C@@H](O[C@@H]2O[C@H](CO)[C@@H](O)[C@H](O)[C@H]2O)CC[C@]2(C)[C@H]3CC=C4[C@@H]5C[C@](C)(CO)CC[C@]5(C)[C@@H](O)C[C@@]4(C)[C@]3(C)CC[C@@H]12 | – | inactive | inactive | inactive | inactive | – | – | – | –
CC1(C)CC[C@]2(C(=O)O[C@@H]3O[C@H](CO)[C@@H](O)[C@H](O)[C@H]3O)[C@H](O)C[C@]3(C)C(=CC[C@@H]4[C@@]5(C)CC[C@H](O[C@@H]6O[C@H](CO)[C@@H](O)[C@H](O)[C@H]6O)C(C)(C)[C@@H]5CC[C@]43C)[C@@H]2C1 | – | – | – | – | – | 0.08 | 0.5 | 0.22 | 0.33
CC(C)[C@H]1C[C@H]2O[C@@]2(C)[C@@H](O)[C@H]1O[C@@H]1O[C@H](COC(=O)/C=C/c2ccc(O)c(O)c2)[C@@H](O)[C@H](O)[C@H]1O (relative stereo) | – | inactive | inactive | inactive | inactive | – | – | – | –
CC(C)[C@H]1C[C@H]2O[C@@]2(C)[C@@H](O)[C@H]1O[C@@H]1O[C@H](CO)[C@@H](O)[C@H](O)[C@H]1O (relative stereo) | – | inactive | inactive | inactive | inactive | – | – | – | –
C=C(C)[C@@H]1CC[C@]2(C(=O)O[C@@H]3O[C@H](CO)[C@@H](O)[C@H](O)[C@H]3O)CC[C@]3(C)[C@H](CC[C@@H]4[C@@]5(C)CC[C@H](O[C@@H]6O[C@H](CO)[C@@H](O)[C@H](O)[C@H]6O)C(C)(C)[C@@H]5CC[C@]43C)[C@@H]12 | – | inactive | inactive | inactive | inactive | – | – | – | –
CC1(C)CC[C@]2(C(=O)O[C@@H]3O[C@H](CO)[C@@H](O)[C@H](O)[C@H]3O)[C@H](O)C[C@]3(C)C(=CC[C@@H]4[C@@]5(C)CC[C@H](O[C@@H]6O[C@H](CO)[C@@H](O)[C@H](O)[C@H]6OS(=O)(=O)O)C(C)(C)[C@@H]5CC[C@]43C)[C@@H]2C1 | – | – | – | – | – | -0.01 | 0.07 | 0.16 | 0.23
C=CC(O)C(/C=C/C#CC#CC#CC)O[C@@H]1O[C@H](CO)[C@@H](O)[C@H](O)[C@H]1O (some centres not stated) | > 100 | – | – | – | – | – | – | – | –
CC1(C)C=C2[C@H]3CC[C@@H]4[C@@]5(C)CC[C@H](O[C@@H]6O[C@H](CO)[C@@H](O)[C@H](O)[C@H]6O[C@@H]6O[C@H](CO)[C@@H](O)[C@H](O)[C@H]6O)C(C)(C)[C@@H]5CC[C@@]4(C)[C@]3(C)CC[C@@]2(C(=O)O[C@@H]2O[C@H](CO)[C@@H](O)[C@H](O)[C@H]2O)CC1 | – | – | – | – | – | 0.01 | 0.72 | 0.06 | 0.49
C[C@H]1[C@H]2[C@H]3CC[C@@H]4[C@@]5(C)CC[C@H](O[C@@H]6O[C@H](CO)[C@@H](O)[C@H](O)[C@H]6O)C(C)(C)[C@@H]5CC[C@@]4(C)[C@]3(C)CC[C@@]2(CO)CC[C@]1(C)O | – | – | – | – | – | 0.18 | 0.5 | 0.24 | 0.47
C[C@H]1[C@H]2[C@H]3CC[C@@H]4[C@@]5(C)CC[C@H](O[C@@H]6O[C@H](CO)[C@@H](O)[C@H](O)[C@H]6O)C(C)(C)[C@@H]5CC[C@@]4(C)[C@]3(C)C[C@H](O)[C@@]2(C)CC[C@]1(C)O | – | inactive | inactive | inactive | inactive | – | – | – | –
C=CC(C)(O)CC/C=C(\C)CC/C=C(\C)CO[C@@H]1O[C@H](CO)[C@@H](O)[C@H](O)[C@H]1O (some centres not stated) | – | – | – | – | – | 0.04 | 0.47 | 0.21 | 0.26

Reference: ChEMBL document CHEMBL3351808, “Thiophenes, polyacetylenes and terpenes from the aerial parts of Eclipata prostrate” (Bioorg Med Chem, 2014)
